# From patent US20040253292A1, “MR-signal emitting coatings” (Wisconsin Alumni Research Foundation, priority 2003, published 2004)
# Test: Diffusion of a fluorescent probe in swollen gelatin gel (FRAP)
# Assay type: physicochemical
# Details: coating thickness 60 μm; diffusion coefficient 9×10^ m^2s^−1
# Source text: To assess the stability of DTPA[Gd(III)] in the gelatin coating, the diffusion of a fluorescence probe in gelatin was studied by the technique of fluorescence recovery after photobleaching (FRAP). The instrument and data analysis scheme are described in Kim, S. H. and Yu, H., J. Phys. Chem. 1992, 96, 4034, which is hereby fully incorporated by reference. Fluorescein was used as the fluorescence probe due, in part, to its molecular size being roughly the same as that of DTPA[Gd(III)].
# The focus of the study was to examine the possible retardation effects of gelatin concentration and cross-link density on the diffusion, which was determined at room temperature, i.e., below the gel point of gelatin. The diffusion of fluorescein probe slows down with the increase of gelatin concentration. The diffusion coefficient decreases from 1.5×10^−10 to 9×10^−12 m^2s^−1 when the concentration of gelatin increases from 9% to 40%. […] Accordingly, the probe diffusion is more likely controlled by the concentration of gelatin rather than the cross-link density. On the other hand, the cross-link density may determine the swelling ratio of gelatin, i.e., the concentration of gelatin in aqueous solution. […]
structure (smiles),measurement,value
"O=C(O)CN(CCN(CC(=O)O)CC(=O)O)CCN(CC(=O)O)CC(=O)O [DTPA, diethylenetriaminepentaacetic acid]",time to diffuse out of the gelatin coating,about 67 seconds
